Experiments:
Experiment in all cases: relative viability (nuclei count vs DMSO), 5 days (fraction); higher = more cells survive
LCLC-103H = test system: LCLC-103H
Outline: (§1)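 Dosing by pin tool came one day after lung cancer cell lines were seeded in 1536-well plates, using either one drug or a fixed anchor-drug dose plus five library-drug doses (not always all listed) in √10 steps. After 5 days, nuclei were counted on 4× images. Relative viability is treated-well nuclei count divided by vehicle-well nuclei count, and values are medians of duplicate plates.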

LXF-289 = test system: LXF-289
Outline: as §1

NCI-H1355 = test system: NCI-H1355
Outline: as §1

NCI-H1651 = test system: NCI-H1651
Outline: as §1

NCI-H1755 = test system: NCI-H1755
Outline: as §1

NCI-H1915 = test system: NCI-H1915
Outline: as §1

NCI-H2170 = test system: NCI-H2170
Outline: as §1

NCI-H2347 = test system: NCI-H2347
Outline: as §1

NCI-H3122 = test system: NCI-H3122
Outline: as §1

NCI-H322M = test system: NCI-H322M
Outline: as §1

NCI-H441 = test system: NCI-H441
Outline: as §1

NCI-H460 = test system: NCI-H460
Outline: as §1

NCI-H520 = test system: NCI-H520
Outline: as §1

NCI-H522 = test system: NCI-H522
Outline: as §1

NCI-H596 = test system: NCI-H596
Outline: as §1

NCI-H650 = test system: NCI-H650
Outline: as §1

NCI-H661 = test system: NCI-H661
Outline: as §1

NCI-H727 = test system: NCI-H727
Outline: as §1

PC-14 = test system: PC-14
Outline: as §1

RERF-LC-KJ = test system: RERF-LC-KJ
Outline: as §1

SK-MES-1 = test system: SK-MES-1
Outline: as §1

SW 900 = test system: SW 900
Outline: as §1

In the case of `C[C@@H]1CN(CC(=O)Nc2ccc3c(c2)Cc2cccc(-c4cc(=O)cc(N5CCOCC5)o4)c2S3)C[C@H](C)O1` + Cc1cc(Nc2cc(N3CCN(C)CC3)nc(Sc3ccc(NC(=O)C4CC4)cc3)n2)n[nH]1 [Tozasertib] (partner 0.1 µM), the relative viability (LCLC-103H; first compound 0.04 µM) is reported as 0.532, the relative viability (LCLC-103H; first compound 0.1265 µM) is reported as 0.498 and the relative viability (LCLC-103H; first compound 0.4 µM) is reported as 0.544. The relative viability (LCLC-103H; first compound 4 µM) was 0.417, the relative viability (LXF-289; first compound 0.04 µM) was 0.193 and the relative viability (LXF-289; first compound 0.1265 µM) was 0.212. It also gave a relative viability (LXF-289; first compound 0.4 µM) of 0.246, a relative viability (LXF-289; first compound 4 µM) of 0.191 and a relative viability (NCI-H1355; first compound 0.04 µM) of 0.361. The relative viability (NCI-H1355; first compound 0.1265 µM) was 0.514, the relative viability (NCI-H1355; first compound 0.4 µM) was 0.461 and the relative viability (NCI-H1355; first compound 4 µM) was 0.42. The relative viability (NCI-H1651; first compound 0.04 µM) was 0.683, the relative viability (NCI-H1651; first compound 0.1265 µM) was 0.609 and the relative viability (NCI-H1651; first compound 0.4 µM) was 0.602. It also gave a relative viability (NCI-H1651; first compound 4 µM) of 0.535, a relative viability (NCI-H1755; first compound 0.04 µM) of 0.603 and a relative viability (NCI-H1755; first compound 0.1265 µM) of 0.582. For the same compound, the relative viability (NCI-H1755; first compound 0.4 µM) was 0.595, the relative viability (NCI-H1755; first compound 4 µM) was 0.466 and the relative viability (NCI-H1915; first compound 0.04 µM) was 0.364. The relative viability (NCI-H1915; first compound 0.1265 µM) was 0.422, the relative viability (NCI-H1915; first compound 0.4 µM) was 0.399 and the relative viability (NCI-H1915; first compound 4 µM) was 0.314. The relative viability (NCI-H2170; first compound 0.04 µM) was 0.708, the relative viability (NCI-H2170; first compound 0.1265 µM) was 0.764 and the relative viability (NCI-H2170; first compound 0.4 µM) was 0.719. It also gave a relative viability (NCI-H2170; first compound 4 µM) of 0.614, a relative viability (NCI-H2347; first compound 0.04 µM) of 0.598 and a relative viability (NCI-H2347; first compound 0.1265 µM) of 0.646. For the same compound, the relative viability (NCI-H2347; first compound 0.4 µM) was 0.535, the relative viability (NCI-H2347; first compound 4 µM) was 0.448 and the relative viability (NCI-H3122; first compound 0.04 µM) was 0.4. The relative viability (NCI-H3122; first compound 0.1265 µM) was 0.403, the relative viability (NCI-H3122; first compound 0.4 µM) was 0.265 and the relative viability (NCI-H3122; first compound 4 µM) was 0.293. For the same compound, the relative viability (NCI-H322M; first compound 0.04 µM) was 0.489, the relative viability (NCI-H322M; first compound 0.1265 µM) was 0.486 and the relative viability (NCI-H322M; first compound 0.4 µM) was 0.449. For the same compound, the relative viability (NCI-H322M; first compound 4 µM) was 0.432, the relative viability (NCI-H441; first compound 0.04 µM) was 0.601 and the relative viability (NCI-H441; first compound 0.1265 µM) was 0.678. The relative viability (NCI-H441; first compound 0.4 µM) was 0.528, the relative viability (NCI-H441; first compound 4 µM) was 0.49 and the relative viability (NCI-H460; first compound 0.04 µM) was 0.393. For the same compound, the relative viability (NCI-H460; first compound 0.1265 µM) was 0.397, the relative viability (NCI-H460; first compound 0.4 µM) was 0.485 and the relative viability (NCI-H460; first compound 4 µM) was 0.0949. The relative viability (NCI-H520; first compound 0.04 µM) was 0.474, the relative viability (NCI-H520; first compound 0.1265 µM) was 0.454 and the relative viability (NCI-H520; first compound 0.4 µM) was 0.356. For the same compound, the relative viability (NCI-H520; first compound 4 µM) was 0.448, the relative viability (NCI-H522; first compound 0.04 µM) was 0.542 and the relative viability (NCI-H522; first compound 0.1265 µM) was 0.56. It also gave a relative viability (NCI-H522; first compound 0.4 µM) of 0.583, a relative viability (NCI-H522; first compound 4 µM) of 0.557 and a relative viability (NCI-H596; first compound 0.04 µM) of 0.934. The relative viability (NCI-H596; first compound 0.1265 µM) was 1.13, the relative viability (NCI-H596; first compound 0.4 µM) was 0.759 and the relative viability (NCI-H596; first compound 4 µM) was 0.762. For the same compound, the relative viability (NCI-H650; first compound 0.04 µM) was 0.655, the relative viability (NCI-H650; first compound 0.1265 µM) was 0.811 and the relative viability (NCI-H650; first compound 0.4 µM) was 0.698. For the same compound, the relative viability (NCI-H650; first compound 4 µM) was 0.581, the relative viability (NCI-H661; first compound 0.04 µM) was 0.345 and the relative viability (NCI-H661; first compound 0.1265 µM) was 0.366. The relative viability (NCI-H661; first compound 0.4 µM) was 0.355, the relative viability (NCI-H661; first compound 4 µM) was 0.366 and the relative viability (NCI-H727; first compound 0.04 µM) was 0.797. It also gave a relative viability (NCI-H727; first compound 0.1265 µM) of 0.736, a relative viability (NCI-H727; first compound 0.4 µM) of 0.572 and a relative viability (NCI-H727; first compound 4 µM) of 0.57. The relative viability (PC-14; first compound 0.04 µM) was 0.451, the relative viability (PC-14; first compound 0.1265 µM) was 0.562 and the relative viability (PC-14; first compound 0.4 µM) was 0.579. The relative viability (PC-14; first compound 4 µM) was 0.482, the relative viability (RERF-LC-KJ; first compound 0.04 µM) was 0.545 and the relative viability (RERF-LC-KJ; first compound 0.1265 µM) was 0.48. For the same compound, the relative viability (RERF-LC-KJ; first compound 0.4 µM) was 0.496, the relative viability (RERF-LC-KJ; first compound 4 µM) was 0.351 and the relative viability (SK-MES-1; first compound 0.04 µM) was 1.09. It also gave a relative viability (SK-MES-1; first compound 0.1265 µM) of 0.852, a relative viability (SK-MES-1; first compound 0.4 µM) of 0.826 and a relative viability (SK-MES-1; first compound 4 µM) of 0.647. The relative viability (SW 900; first compound 0.04 µM) was 0.463, the relative viability (SW 900; first compound 0.1265 µM) was 0.579 and the relative viability (SW 900; first compound 0.4 µM) was 0.476. The relative viability (SW 900; first compound 4 µM) was 0.335.

From the supplement of paper PMC10307832
